The text below walks through data of paper PMC3685428 (ACS medicinal chemistry letters, 2012).

One data set deals with P. falciparum 3D7 strain. Briefly: Proliferation of erythrocyte-stage P. falciparum, 3D7 strain. It is filed as cell-based. The following applies: Plasmodium falciparum; for IC50: 3D7, Erythrocyte, read-out: IC50 against P. falciparum proliferation, 3D7 strain.
A further data set concerns P. falciparum Dd2 strain. Briefly: Proliferation of erythrocyte-stage P. falciparum, Dd2 strain. It is filed as cell-based. The following applies: Plasmodium falciparum; for IC50: DD2, Erythrocyte, read-out: IC50 against P. falciparum proliferation, Dd2 strain.
Data set [1] concerns the target T1, recombinant P. falciparum DXR (PfDXR) (Plasmodium falciparum, UniProt O96693).
T1 sequence (O96693 73-488): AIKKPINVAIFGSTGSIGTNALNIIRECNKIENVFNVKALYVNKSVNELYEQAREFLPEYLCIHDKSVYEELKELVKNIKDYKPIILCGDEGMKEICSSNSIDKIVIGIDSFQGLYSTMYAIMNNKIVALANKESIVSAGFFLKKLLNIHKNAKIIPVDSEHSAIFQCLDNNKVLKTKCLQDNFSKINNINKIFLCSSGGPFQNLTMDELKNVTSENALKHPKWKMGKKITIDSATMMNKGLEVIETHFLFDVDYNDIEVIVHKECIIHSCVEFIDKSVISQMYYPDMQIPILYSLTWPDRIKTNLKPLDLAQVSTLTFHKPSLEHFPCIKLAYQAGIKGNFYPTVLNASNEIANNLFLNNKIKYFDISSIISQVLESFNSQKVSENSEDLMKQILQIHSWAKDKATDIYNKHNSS
As to the kind of experiment: Enzyme inhibition of recombinant P. falciparum DXR. The following applies: relative to compound 7. The format is biochemical.

For another data set, the system named is P. falciparum malaria. The following applies: clinical trials, in combination with clindamycin ref 7, 8; cited from earlier work.
For data set [2] the following is noted: background statement, cited from earlier work.

Molecules are shown by their SMILES.

The term EC50 denotes the concentration needed to bring the measured effect to its halfway point.

Turning to `CCN(CC)CCCC(C)Nc1ccnc2cc(Cl)ccc12` (centres unmarked) [CQ, chloroquine, reference compound], the IC50 is 21 nM in the data set on P. falciparum 3D7 strain and 120 nM in the data set on P. falciparum Dd2 strain.

In the case of `CC(=O)N(O)CCC(c1ccncc1)P(=O)(O)O` (centres unmarked) [5p], the IC50 in the data set with P. falciparum 3D7 strain was found to be 630 nM; in the data set on P. falciparum Dd2 strain, 460 nM. The EC50 in the data set with P. falciparum 3D7 strain (3D7, read-out: EC50 against P. falciparum 3D7) was 310 nM. Also, in data set [1], the “Fold more inhibitory potency than compound 7 against PfDXR” value is listed as ~ 6 ×.

For `O=CN(O)CCC(c1ccncc1)P(=O)(O)O` (centres unmarked) [4p], the IC50 with P. falciparum 3D7 strain was 180 nM; in the data set on P. falciparum Dd2 strain it was 170 nM.

On to `O=CN(O)CCC(c1cccnc1)P(=O)(O)O` (centres unmarked) [4m], for which the IC50 with P. falciparum 3D7 strain was 340 nM; in the data set with P. falciparum Dd2 strain, 180 nM.

Take `CC(=O)N(O)CCC(c1ccccc1)P(=O)(O)O` (centres unmarked) [compound 7]: the IC50 is 3500 nM with P. falciparum 3D7 strain and 1700 nM with P. falciparum Dd2 strain.

For the compound `CC(=O)N(O)CCC(c1cccnc1)P(=O)(O)O` (centres unmarked) [5m], the IC50 was found to be 440 nM with P. falciparum 3D7 strain and 310 nM with P. falciparum Dd2 strain. Moreover, the EC50 with P. falciparum Dd2 strain (DD2, read-out: EC50 against P. falciparum Dd2) is 630 nM.

Regarding `O=CN(O)CCCP(=O)(O)O` [compound 1, Fosmidomycin], in the data set with P. falciparum malaria, the “Clinical efficacy against P. falciparum malaria” value is given as “effective against P. falciparum malaria”. The IC50 in the data set on P. falciparum 3D7 strain is 1170 nM; in the data set with P. falciparum Dd2 strain, 440 nM. Moreover, in data set [2], the Oral availability entry is listed as “poor”. Further, the “Half life in plasma” value in data set [2] (plasma) is ~ 1 h.
